Consider 30 molecules from patent publication US8802711B2, “TRPV1 antagonists” (AbbVie Inc., priority 2011, dated 2014).

For experiment [1], the target named is T1, human TRPV1 receptor (hTRPV1) (Homo sapiens (Human), UniProt Q8NER1). Briefly: Capsaicin activation assay (FLIPR intracellular Ca2+). The experiment is classed as cell-based. As to conditions: Table 1; inhibition of capsaicin-induced intracellular Ca2+ increase, HEK293 cells expressing human TRPV1; read-out: hTRPV1 cap IC50. An outline of the steps: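 Antagonism measured as [Ca2+]i fluorescence on FLIPR Tetra: compounds given 3 min ahead of capsaicin, added as 200 nM (4×), to dye-loaded hTRPV1-HEK293 cells. Response taken as baseline-subtracted peak, normalized to the 50 nM capsaicin control; 12-point one-third-log titrations.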

Experiment [2] has as its target T1, human TRPV1 receptor (hTRPV1). Description: Acid activation assay (pH 5.0, FLIPR intracellular Ca2+). The experiment is classed as cell-based. As to conditions: Table 1; 37.5 μM antagonist, percentage of the maximal pH 5.0-induced response remaining; read-out: hTRPV1 H+ (max % remain). The essentials: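 Antagonism of acid-evoked Ca2+ influx measured by FLIPR Calcium-4 fluorescence after a pH 5.0 DPBS/MES stimulus, with compounds preincubated 3 min over 12 half-log concentrations. Cells: stable hTRPV1-expressing 1321N1 line, dye-loaded 90–120 min in the dark at 25 °C.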

Broadly, the IC50 is the concentration needed to halve the response being measured.

T1 sequence (Q8NER1 whole entry): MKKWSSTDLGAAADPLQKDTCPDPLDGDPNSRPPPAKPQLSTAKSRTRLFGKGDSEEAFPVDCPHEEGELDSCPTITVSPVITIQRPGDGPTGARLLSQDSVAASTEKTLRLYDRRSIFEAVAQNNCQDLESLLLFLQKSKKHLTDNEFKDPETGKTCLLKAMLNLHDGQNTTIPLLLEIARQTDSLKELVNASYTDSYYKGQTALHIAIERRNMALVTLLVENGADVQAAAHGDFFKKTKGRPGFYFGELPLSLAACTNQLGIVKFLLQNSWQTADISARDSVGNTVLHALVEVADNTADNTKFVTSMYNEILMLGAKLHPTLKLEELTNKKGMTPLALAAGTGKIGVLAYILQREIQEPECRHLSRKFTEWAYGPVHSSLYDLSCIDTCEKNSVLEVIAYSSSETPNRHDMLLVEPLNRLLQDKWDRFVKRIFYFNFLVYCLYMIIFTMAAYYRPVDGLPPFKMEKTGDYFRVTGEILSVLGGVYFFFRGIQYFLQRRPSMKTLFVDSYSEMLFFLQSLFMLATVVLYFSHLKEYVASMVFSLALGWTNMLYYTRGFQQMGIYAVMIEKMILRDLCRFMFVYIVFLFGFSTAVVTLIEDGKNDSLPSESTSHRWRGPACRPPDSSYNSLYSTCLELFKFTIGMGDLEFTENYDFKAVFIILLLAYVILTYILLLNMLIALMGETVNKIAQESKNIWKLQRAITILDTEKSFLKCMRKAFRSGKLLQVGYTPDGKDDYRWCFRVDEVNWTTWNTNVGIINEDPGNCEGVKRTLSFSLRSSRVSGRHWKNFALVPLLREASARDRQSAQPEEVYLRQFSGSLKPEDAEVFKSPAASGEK

`O=C(Nc1cccc2c1C[C@H](O)C2)N[C@@H]1CC[C@@H](c2ccccc2F)C1` [Example 92, 1-[(1R,3R)-3-(2-fluorophenyl)cyclopentyl]-3-[(2R)-2-hydroxy-2,3-dihydro-1H-inden-4-yl]urea]: the 50% inhibitory concentration (IC50) in experiment [1] is 79 nM. In experiment [2], the remaining activity at 37.5 µM worked out at 66%.

For `O=C(Nc1cccc2c1C[C@@H](O)C2)N[C@@H]1CC[C@@H](c2cccc(F)c2)C1` [Example 86, 1-[(1R,3R)-3-(3-fluorophenyl)cyclopentyl]-3-[(2S)-2-hydroxy-2,3-dihydro-1H-inden-4-yl]urea], the half-inhibitory concentration (IC50) in experiment [1] turned out to be 80 nM. Also, the remaining activity at 37.5 µM in experiment [2] stood at 0%.

With `O=C(Nc1cccc2c1C[C@H](O)C2)N[C@@H]1CC[C@@H](c2ccccc2)C1` [Example 15, 1-[(2R)-2-hydroxy-2,3-dihydro-1H-inden-4-yl]-3-[(1R,3R)-3-phenylcyclopentyl]urea], the concentration for half-maximal inhibition (IC50) in experiment [1] came to 179 nM. In addition, in experiment [2], the remaining activity at 37.5 µM came to 20%.

Turning to `O=C(Nc1cccc2c1C[C@H](O)C2)N[C@@H]1CC[C@@H](c2cccc(F)c2)C1` [Example 90, 1-[(1R,3R)-3-(3-fluorophenyl)cyclopentyl]-3-[(2R)-2-hydroxy-2,3-dihydro-1H-inden-4-yl]urea], in experiment [1], the half-maximal inhibitory concentration (IC50) was determined as 109 nM. Further, the remaining activity at 37.5 µM in experiment [2] is 54%.

`O=C(Nc1cccc2c1C[C@H](O)C2)N[C@H]1CC[C@H](c2ccccc2)C1` [Example 8, 1-[(2R)-2-hydroxy-2,3-dihydro-1H-inden-4-yl]-3-[(1S,3S)-3-phenylcyclopentyl]urea]: the IC50 in experiment [1] was 123 nM. The remaining activity at 37.5 µM in experiment [2] is 78%.

Regarding `C[C@@]1(c2ccccc2)CC[C@@H](NC(=O)Nc2cccc3[nH]ncc23)C1` [Example 73, 1-(1H-indazol-4-yl)-3-[(1R,3R)-3-methyl-3-phenylcyclopentyl]urea], in experiment [1], the IC50 worked out at 164 nM. The remaining activity at 37.5 µM in experiment [2] stood at 11%.

`O=C(Nc1ccc2c(c1)NCCO2)N[C@@H]1CC[C@H](c2ccccc2)C1` [Example 146, 1-(3,4-dihydro-2H-1,4-benzoxazin-6-yl)-3-[(1R,3S)-3-phenylcyclopentyl]urea]: the concentration for half-maximal inhibition (IC50) in experiment [1] is > 37500 nM. Further, the remaining activity at 37.5 µM in experiment [2] stood at 39%.

For `CN1C(=O)CCc2ccc(NC(=O)N[C@H]3CC[C@H](c4ccccc4)C3)cc21` [Example 106, 1-(1-methyl-2-oxo-1,2,3,4-tetrahydroquinolin-7-yl)-3-[(1S,3S)-3-phenylcyclopentyl]urea], the half-inhibitory concentration (IC50) in experiment [1] is > 37500 nM. The remaining activity at 37.5 µM in experiment [2] is 75%.

Turning to `O=C(Nc1cccc2c1CCC2)N[C@@H]1CC[C@H](c2ccccc2)C1` [Example 111, 1-(2,3-dihydro-1H-inden-4-yl)-3-[(1R,3S)-3-phenylcyclopentyl]urea], in experiment [1], the IC50 was 362 nM. Also, the remaining activity at 37.5 µM in experiment [2] is 32%.

In the case of `O=C(Nc1cccc2[nH]ncc12)N[C@@H]1CC[C@H](c2cccc(F)c2)C1` [Example 65, 1-[(1R,3S)-3-(3-fluorophenyl)cyclopentyl]-3-(1H-indazol-4-yl)urea], in experiment [1], the concentration for half-maximal inhibition (IC50) is 8 nM. The remaining activity at 37.5 µM in experiment [2] came to 12%.

As for `O=C(Nc1cccc2c(Cl)nccc12)N[C@@H]1CC[C@H](c2ccccc2)C1` [Example 136, 1-(1-chloroisoquinolin-5-yl)-3-[(1R,3S)-3-phenylcyclopentyl]urea], in experiment [1], the IC50 was > 37500 nM. In addition, the remaining activity at 37.5 µM in experiment [2] came to 46%.

Consider `O=C(Nc1cccc2[nH]ncc12)N[C@@H]1C[C@H](c2ccccc2)[C@@H]2C[C@@H]21` [Example 55, 1-(1H-indazol-4-yl)-3-((1S,2R,4S,5S)-4-phenylbicyclo[3.1.0]hex-2-yl)urea], for which the IC50 in experiment [1] was 37 nM. The remaining activity at 37.5 µM in experiment [2] turned out to be 11%.

Turning to `O=C1CCc2ccc(NC(=O)N[C@H]3CC[C@@H](c4ccccc4)C3)cc2N1` [Example 26, 1-(2-oxo-1,2,3,4-tetrahydroquinolin-7-yl)-3-[(1S,3R)-3-phenylcyclopentyl]urea], in experiment [1], the IC50 worked out at 544 nM. Further, the remaining activity at 37.5 µM in experiment [2] amounted to 65%.

Regarding `Cc1cc2c(NC(=O)N[C@@H]3CC[C@H](c4cccc(F)c4)C3)c(F)ccc2cn1` [Example 76, 1-(6-fluoro-3-methylisoquinolin-5-yl)-3-[(1R,3S)-3-(3-fluorophenyl)cyclopentyl]urea], the concentration for half-maximal inhibition (IC50) in experiment [1] was 2 nM. Also, the remaining activity at 37.5 µM in experiment [2] came out at 9%.

As to `Cc1cc2c(NC(=O)N[C@H]3CC[C@H](c4ccccc4)C3)c(F)ccc2cn1` [Example 13, 1-(6-fluoro-3-methylisoquinolin-5-yl)-3-[(1S,3S)-3-phenylcyclopentyl]urea], the half-inhibitory concentration (IC50) in experiment [1] worked out at 13 nM. Also, the remaining activity at 37.5 µM in experiment [2] amounted to 60%.

Consider `CN1C(=O)CCc2c(NC(=O)N[C@H]3CC[C@@H](c4cccc(F)c4)C3)cccc21` [Example 98, 1-[(1S,3R)-3-(3-fluorophenyl)cyclopentyl]-3-(1-methyl-2-oxo-1,2,3,4-tetrahydroquinolin-5-yl)urea], for which, in experiment [1], the IC50 came to 54 nM. The remaining activity at 37.5 µM in experiment [2] turned out to be 32%.

`O=C(Nc1cccc2c1C[C@@H](O)CC2)N[C@@H]1CC[C@@H](c2ccccc2)C1` [Compound F, 1-[(7S)-7-hydroxy-5,6,7,8-tetrahydronaphthalen-1-yl]-3-[(1R,3R)-3-phenylcyclopentyl]urea, reference compound]: the IC50 in experiment [1] stood at 5 nM. The remaining activity at 37.5 µM in experiment [2] came out at 6%.

For the molecule `O=C1CCc2ccc(NC(=O)N[C@@H]3CC[C@@H](c4ccccc4)C3)cc2N1` [Example 19, 1-(2-oxo-1,2,3,4-tetrahydroquinolin-7-yl)-3-[(1R,3R)-3-phenylcyclopentyl]urea], the IC50 in experiment [1] is > 37500 nM. Besides, the remaining activity at 37.5 µM in experiment [2] came to 81%.

In the case of `O=C(Nc1cccc2c1C[C@@H](O)CC2)N[C@H]1CC[C@H](c2ccccc2)C1` [Compound D, 1-[(7S)-7-hydroxy-5,6,7,8-tetrahydronaphthalen-1-yl]-3-[(1S,3S)-3-phenylcyclopentyl]urea, reference compound], the IC50 in experiment [1] came out at 13 nM. Also, the remaining activity at 37.5 µM in experiment [2] is 2%.

As to `O=C(Nc1cccc2[nH]ncc12)N[C@H]1CC[C@H](c2ccccc2F)C1` [Example 62, 1-[(1S,3S)-3-(2-fluorophenyl)cyclopentyl]-3-(1H-indazol-4-yl)urea], the IC50 in experiment [1] is 10 nM. In addition, the remaining activity at 37.5 µM in experiment [2] amounted to 5%.

`Cn1ncc2c(NC(=O)N[C@H]3CC[C@@H](c4ccccc4F)C3)cccc21` [Example 104, 1-[(1S,3R)-3-(2-fluorophenyl)cyclopentyl]-3-(1-methyl-1H-indazol-4-yl)urea]: in experiment [1], the IC50 was 97 nM. Also, the remaining activity at 37.5 µM in experiment [2] came out at 42%.

Regarding `Cc1nc(N)cc2c(NC(=O)N[C@@H]3CC[C@H](c4ccccc4)C3)cccc12` [Example 141, 1-(3-amino-1-methylisoquinolin-5-yl)-3-[(1R,3S)-3-phenylcyclopentyl]urea], the IC50 in experiment [1] is > 37500 nM. Further, the remaining activity at 37.5 µM in experiment [2] was 82%.

For `O=C(Nc1cccc2[nH]ncc12)N[C@H]1CCC[C@@H](c2ccc(C(F)(F)F)cc2)C1` [Example 33, 1-(1H-indazol-4-yl)-3-{(1S,3R)-3-[4-(trifluoromethyl)phenyl]cyclohexyl}urea], in experiment [1], the IC50 came to 8640 nM. In addition, in experiment [2], the remaining activity at 37.5 µM was found to be 68%.

Take `Cc1cc2c(NC(=O)N[C@@H]3CC[C@@H](c4cccc(F)c4)C3)c(F)ccc2cn1` [Example 84, 1-(6-fluoro-3-methylisoquinolin-5-yl)-3-[(1R,3R)-3-(3-fluorophenyl)cyclopentyl]urea]: the IC50 in experiment [1] came to 5.4 nM. Further, in experiment [2], the remaining activity at 37.5 µM was 13%.

As for `CN(C)c1ccc([C@H]2CCC(NC(=O)Nc3cccc4[nH]ncc34)C2)cc1` (stereo partly drawn) [Example 47, 1-{(3S)-3-[4-(dimethylamino)phenyl]cyclopentyl}-3-(1H-indazol-4-yl)urea], in experiment [1], the half-maximal inhibitory concentration (IC50) stood at 290 nM. Besides, the remaining activity at 37.5 µM in experiment [2] amounted to 3%.

With `O=C(Nc1cccc2c1C[C@H](O)C2)N[C@H]1CC[C@@H](c2ccccc2F)C1` [Example 93, 1-[(1S,3R)-3-(2-fluorophenyl)cyclopentyl]-3-[(2R)-2-hydroxy-2,3-dihydro-1H-inden-4-yl]urea], the IC50 in experiment [1] worked out at 93 nM. In experiment [2], the remaining activity at 37.5 µM was determined as 55%.

Regarding `Cc1cc2c(NC(=O)N[C@@H]3CC[C@H](c4ccccc4F)C3)c(F)ccc2cn1` [Example 70, 1-(6-fluoro-3-methylisoquinolin-5-yl)-3-[(1R,3S)-3-(2-fluorophenyl)cyclopentyl]urea], in experiment [1], the IC50 came to 5.6 nM. In addition, the remaining activity at 37.5 µM in experiment [2] came to 22%.

With `O=C(Nc1cccc2c1C[C@H](O)CC2)N[C@H]1CC[C@H](c2ccccc2)C1` [Compound A, 1-[(7R)-7-hydroxy-5,6,7,8-tetrahydronaphthalen-1-yl]-3-[(1S,3S)-3-phenylcyclopentyl]urea, reference compound], the half-inhibitory concentration (IC50) in experiment [1] was 4 nM. In experiment [2], the remaining activity at 37.5 µM was found to be 2%.

Turning to `CN1C(=O)CCc2c(NC(=O)N[C@@H]3CC[C@@H](c4cccc(F)c4)C3)cccc21` [Example 97, 1-[(1R,3R)-3-(3-fluorophenyl)cyclopentyl]-3-(1-methyl-2-oxo-1,2,3,4-tetrahydroquinolin-5-yl)urea], the half-inhibitory concentration (IC50) in experiment [1] amounted to 69 nM. Also, the remaining activity at 37.5 µM in experiment [2] worked out at 46%.

`O=C(Nc1cccc2c1C[C@@H](O)C2)N[C@H]1CC[C@H](c2ccccc2)C1` [Example 9, 1-[(2S)-2-hydroxy-2,3-dihydro-1H-inden-4-yl]-3-[(1S,3S)-3-phenylcyclopentyl]urea]: in experiment [1], the 50% inhibitory concentration (IC50) was 205 nM. In experiment [2], the remaining activity at 37.5 µM was 14%.
